Measurements as given in patent US20220054520A1, “OPHTHALMIC COMPOSITION CONTAINING DIQUAFOSOL OR SALT THEREOF, VINYL-BASED POLYMER AND CELLULOSE-BASED POLYMER” (SANTEN PHARMACEUTICAL CO., LTD., priority 2019, published 2022).

Test system: rat dorsal root ganglion neurons
Assay: Stimulativeness of diquafosol sodium to peripheral nerves, intracellular calcium fluorescence (FLIPR Calcium 6)
Assay type: cell-based
Protocol: The stimulativeness of diquafosol sodium to peripheral nerves in the coexistence of PVP was examined.
Cultured peripheral nerve cells (rat dorsal root ganglion neurons, purchased from Lonza Japan Ltd.) were incubated in a buffer solution (FLIPR Calcium 6 Assay Kit, Molecular Devices, LLC.) including intracellular fluorescent calcium indicator dyes. 40% of the total buffer solution was replaced with each of the aforementioned formulation solutions. The non-stimulation group and the stimulated control group were treated with the buffer solutions instead of the formulation solutions in the same manner. After allowing to stand at room temperature, the fluorescence measurement of the calcium indicator dyes with an elapse of time was started by using a fluorescent plate reader. Diquafosol sodium (final concentration: 0.3%) was added after 60 seconds from the start, and the measurement of fluorescence intensity was continued.
The maximum fluorescence intensity (RFUmax) after addition of diquafosol sodium was calculated relative to the fluorescence intensity (RFU) immediately before the addition as 100%.

O=c1ccn([C@@H]2O[C@H](COP(=O)([O-])OP(=O)([O-])OP(=O)([O-])OP(=O)([O-])OC[C@H]3O[C@@H](n4ccc(=O)[nH]c4=O)[C@H](O)[C@@H]3O)[C@@H](O)[C@H]2O)c(=O)[nH]1.[Na+].[Na+].[Na+].[Na+] [diquafosol sodium, diquafosol tetrasodium salt]
fluorescence intensity / signal of intracellular calcium ions after addition of diquafosol sodium (in words) (peripheral nerve cells exposed to diquafosol sodium 0.3%, with or without formulation solution): rapidly increased
maximum fluorescence intensity (RFUmax) after addition of diquafosol sodium (stimulated control group: buffer solution instead of formulation solution, diquafosol sodium final concentration 0.3%, RFU before addition as 100%): ≥ 103.5%
